In patent US6737383B1, “Herbicidal oxadiazolidines” (priority 1999, dated 2004):

How the values were obtained:
blackgrass = assay: Test B pre/postemergence blackgrass; assay type: in vivo, Alopecurus myosuroides
Method in brief: (§1)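 Test chemicals in a non-phytotoxic solvent mixture with surfactant were sprayed preemergence onto planted seeds and postemergence onto plants 2 to 18 cm tall (1- to 4-leaf stage). After twelve to sixteen days in a greenhouse, injury was visually rated against untreated controls from 0 (no effect) to 10 (complete control).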

pigweed = assay: Test B pre/postemergence pigweed; assay type: in vivo, Amaranthus retroflexus
Method in brief: as §1

crabgrass = assay: Test B pre/postemergence crabgrass; assay type: in vivo, Digitaria sanguinalis
Method in brief: as §1

bamyardgrass = assay: Test B flood test barnyardgrass; assay type: in vivo, Echinochloa crus-galli
Method in brief: (§2)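 Each value is a visual injury score relative to controls, with 10 meaning complete control and 0 no effect. Evaluation took place twelve to sixteen days after the 2-leaf-stage plants were treated and kept in the greenhouse.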

duck salad = assay: Test B flood test duck salad; assay type: in vivo, Heteranthera limosa
Method in brief: as §2

soybean = assay: Test B pre/postemergence soybean; assay type: in vivo, Glycine max
Method in brief: as §1

purple nutsedge = assay: Test B pre/postemergence purple nutsedge; assay type: in vivo, Cyperus rotundus
Method in brief: as §1

sugar beet = assay: Test B pre/postemergence sugar beet; assay type: in vivo, Beta vulgaris
Method in brief: as §1

smallflower flatsedge = assay: Test B flood test smallflower flatsedge; assay type: in vivo, Cyperus difformis
Method in brief: as §2

giant foxtail = assay: Test B pre/postemergence giant foxtail; assay type: in vivo, Setaria faberii
Method in brief: as §1

corn = assay: Test B pre/postemergence corn; assay type: in vivo, Zea mays
Method in brief: as §1

cocklebur = assay: Test B pre/postemergence cocklebur; assay type: in vivo, Xanthium strumarium
Method in brief: as §1

surinam grass = assay: Test B pre/postemergence surinam grass; assay type: in vivo, Brachiaria decumbens
Method in brief: as §1

wheat = assay: Test B pre/postemergence wheat; assay type: in vivo, Triticum aestivum
Method in brief: as §1

rape = assay: Test B pre/postemergence rape; assay type: in vivo, Brassica napus
Method in brief: as §1

rice = assay: Test B flood test rice; assay type: in vivo, Oryza sativa
Method in brief: as §2

[1] = Preemergence, Rate 62 g/ha, scale of 0 to 10 where 0 is no effect and 10 is complete control
[2] = Preemergence, Rate 250 g/ha, scale of 0 to 10 where 0 is no effect and 10 is complete control
[3] = Preemergence, Rate 500 g/ha, scale of 0 to 10 where 0 is no effect and 10 is complete control
[4] = Rate 62 g/ha, Postemergence, scale 0 to 10 (0 no effect, 10 complete control)
[5] = Rate 125 g/ha, Postemergence, scale of 0 to 10 where 0 is no effect and 10 is complete control
[6] = Rate 125 g/ha, Preemergence, scale of 0 to 10 where 0 is no effect and 10 is complete control
[7] = Rate 250 g/ha, Postemergence, scale of 0 to 10 where 0 is no effect and 10 is complete control
[8] = Rate 500 g/ha, Postemergence, scale 0 to 10, 0 no effect, 10 complete control
[9] = Rate 62 g/ha, headed Pre-emergence (flood test species), scale 0 to 10 (0 no effect, 10 complete control)
[10] = Rate 125 g/ha, Pre-emergence, flood test species, scale 0 to 10 where 0 is no effect and 10 is complete control
[11] = Rate 250 g/ha, Pre-emergence, flood-test species, scale 0 to 10, 0 is no effect, 10 is complete control
[12] = Rate 500 g/ha, Pre-emergence, flood test species, scale 0 to 10 (0 no effect, 10 complete control)

`CC(C)N(C(=O)n1oc(=O)n(C2CCCC2)c1=O)c1ccccc1` [Compound 283] was tested, and the “Blackgrass plant response rating” value (blackgrass; [1]) was 7, the “Blackgrass plant response rating” value (blackgrass; [2]) was 9 and the “Plant response rating, Blackgrass” value (blackgrass; [3]) was 10. For the same compound, the “Blackgrass plant response rating” value (blackgrass; [4]) was 2, the “Blackgrass plant response rating” value (blackgrass; [5]) was 6 and the “Blackgrass plant response rating” value (blackgrass; [6]) was 8. For the same compound, the “Plant response rating, Blackgrass” value (blackgrass; [7]) was 7, the “Blackgrass plant response rating” value (blackgrass; [8]) was 7 and the “Redroot pigweed plant response rating” value (pigweed; [1]) was 2. The “Redroot pigweed plant response rating” value (pigweed; [2]) was 10, the “Plant response rating, Redroot pigweed” value (pigweed; [3]) was 10 and the “Redroot pigweed plant response rating” value (pigweed; [4]) was 4. For the same compound, the “Redroot pigweed plant response rating” value (pigweed; [5]) was 4, the “Redroot pigweed plant response rating” value (pigweed; [6]) was 6 and the “Plant response rating, Redroot pigweed” value (pigweed; [7]) was 5. The “Redroot pigweed plant response rating” value (pigweed; [8]) was 7, the “Crabgrass plant response rating” value (crabgrass; [1]) was 2 and the “Plant response rating, Crabgrass” value (crabgrass; [3]) was 7. For the same compound, the “Crabgrass plant response rating” value (crabgrass; [4]) was 0, the “Crabgrass plant response rating” value (crabgrass; [5]) was 0 and the “Crabgrass plant response rating” value (crabgrass; [6]) was 7. The “Plant response rating, Crabgrass” value (crabgrass; [7]) was 1, the “Crabgrass plant response rating” value (crabgrass; [8]) was 1 and the “Barnyardgrass plant response rating” value (bamyardgrass; [9]) was 0. For the same compound, the “Barnyardgrass plant response rating” value (bamyardgrass; [10]) was 3, the “Barnyardgrass plant response rating” value (bamyardgrass; [11]) was 6 and the “Barnyardgrass plant response rating” value (bamyardgrass; [12]) was 6. The “Ducksalad plant response rating” value (duck salad; [9]) was 0, the “Ducksalad plant response rating” value (duck salad; [10]) was 0 and the “Ducksalad plant response rating” value (duck salad; [11]) was 0. For the same compound, the “Ducksalad plant response rating” value (duck salad; [12]) was 0, the “Soybean plant response rating” value (soybean; [1]) was 0 and the “Soybean plant response rating” value (soybean; [2]) was 0. For the same compound, the “Plant response rating, Soybean” value (soybean; [3]) was 0, the “Soybean plant response rating” value (soybean; [4]) was 4 and the “Soybean plant response rating” value (soybean; [5]) was 4. The “Soybean plant response rating” value (soybean; [6]) was 0, the “Plant response rating, Soybean” value (soybean; [7]) was 5 and the “Soybean plant response rating” value (soybean; [8]) was 7. For the same compound, the “Nutsedge plant response rating” value (purple nutsedge; [1]) was 0, the “Nutsedge plant response rating” value (purple nutsedge; [2]) was 0 and the “Plant response rating, Nutsedge” value (purple nutsedge; [3]) was 0. The “Nutsedge plant response rating” value (purple nutsedge; [4]) was 0, the “Nutsedge plant response rating” value (purple nutsedge; [5]) was 0 and the “Nutsedge plant response rating” value (purple nutsedge; [6]) was 0. The “Plant response rating, Nutsedge” value (purple nutsedge; [7]) was 0, the “Nutsedge plant response rating” value (purple nutsedge; [8]) was 0 and the “Sugarbeets plant response rating” value (sugar beet; [1]) was 0. For the same compound, the “Sugarbeets plant response rating” value (sugar beet; [2]) was 2, the “Plant response rating, Sugarbeets” value (sugar beet; [3]) was 5 and the “Sugarbeets plant response rating” value (sugar beet; [4]) was 0. The “Sugarbeets plant response rating” value (sugar beet; [5]) was 2, the “Sugarbeets plant response rating” value (sugar beet; [6]) was 0 and the “Plant response rating, Sugarbeets” value (sugar beet; [7]) was 2. For the same compound, the “Sugarbeets plant response rating” value (sugar beet; [8]) was 2, the “S. Flatsedge plant response rating” value (smallflower flatsedge; [9]) was 0 and the “S. Flatsedge plant response rating” value (smallflower flatsedge; [10]) was 0. For the same compound, the “S. Flatsedge plant response rating” value (smallflower flatsedge; [11]) was 0, the “S. Flatsedge plant response rating” value (smallflower flatsedge; [12]) was 5 and the “Giant foxtail plant response rating” value (giant foxtail; [1]) was 8. For the same compound, the “Giant foxtail plant response rating” value (giant foxtail; [2]) was 10, the “Plant response rating, Giant foxtail” value (giant foxtail; [3]) was 10 and the “Giant foxtail plant response rating” value (giant foxtail; [4]) was 0. The “Giant foxtail plant response rating” value (giant foxtail; [5]) was 3, the “Giant foxtail plant response rating” value (giant foxtail; [6]) was 9 and the “Plant response rating, Giant foxtail” value (giant foxtail; [7]) was 4. The “Giant foxtail plant response rating” value (giant foxtail; [8]) was 7, the “Corn plant response rating” value (corn; [1]) was 0 and the “Corn plant response rating” value (corn; [2]) was 0. The “Plant response rating, Corn” value (corn; [3]) was 0, the “Corn plant response rating” value (corn; [4]) was 0 and the “Corn plant response rating” value (corn; [5]) was 0. For the same compound, the “Corn plant response rating” value (corn; [6]) was 0, the “Plant response rating, Corn” value (corn; [7]) was 0 and the “Corn plant response rating” value (corn; [8]) was 0. For the same compound, the “Cocklebur plant response rating” value (cocklebur; [1]) was 0, the “Cocklebur plant response rating” value (cocklebur; [2]) was 0 and the “Plant response rating, Cocklebur” value (cocklebur; [3]) was 0. For the same compound, the “Cocklebur plant response rating” value (cocklebur; [4]) was 2, the “Cocklebur plant response rating” value (cocklebur; [5]) was 2 and the “Cocklebur plant response rating” value (cocklebur; [6]) was 0. The “Plant response rating, Cocklebur” value (cocklebur; [7]) was 2, the “Cocklebur plant response rating” value (cocklebur; [8]) was 2 and the “B. signalgrass plant response rating” value (surinam grass; [1]) was 6. The “B. signalgrass plant response rating” value (surinam grass; [2]) was 10, the “Plant response rating, B. signalgrass” value (surinam grass; [3]) was 10 and the “B. signalgrass plant response rating” value (surinam grass; [4]) was 0. The “B. signalgrass plant response rating” value (surinam grass; [5]) was 0, the “B. signalgrass plant response rating” value (surinam grass; [6]) was 10 and the “Plant response rating, B. signalgrass” value (surinam grass; [7]) was 0. The “B. signalgrass plant response rating” value (surinam grass; [8]) was 2, the “Wheat plant response rating” value (wheat; [1]) was 0 and the “Wheat plant response rating” value (wheat; [2]) was 1. For the same compound, the “Plant response rating, Wheat” value (wheat; [3]) was 6, the “Wheat plant response rating” value (wheat; [4]) was 0 and the “Wheat plant response rating” value (wheat; [5]) was 0. The “Wheat plant response rating” value (wheat; [6]) was 0, the “Plant response rating, Wheat” value (wheat; [7]) was 0 and the “Wheat plant response rating” value (wheat; [8]) was 0. For the same compound, the “Rape plant response rating” value (rape; [1]) was 0, the “Rape plant response rating” value (rape; [2]) was 2 and the “Plant response rating, Rape” value (rape; [3]) was 8. The “Rape plant response rating” value (rape; [4]) was 2, the “Rape plant response rating” value (rape; [5]) was 3 and the “Plant response rating, Rape” value (rape; [7]) was 4. The “Rape plant response rating” value (rape; [8]) was 7, the “Rice plant response rating” value (rice; [9]) was 0 and the “Rice plant response rating” value (rice; [10]) was 0. The “Rice plant response rating” value (rice; [11]) was 0 and the “Rice plant response rating” value (rice; [12]) was 1.
